Broadly, the IC50 is the point on the concentration scale where inhibition reaches its midpoint.

This is an account of results in patent publication US20130096105A1, “ArylSulfonamide Based Matrix Metalloprotease Inhibitors” (NOVARTIS AG, priority 2008, published 2013).

Read-outs that look alike come from different tables or passages of the source. Where only a bound is given, the exact number is not on record here.

In assay [1] the target is Collagenase-3 (MMP-13) (Homo sapiens, UniProt P45452). Description: Collagenase-3 (MMP-13) inhibitory activity, fluorogenic peptide substrate cleavage. Type of assay: biochemical. The procedure: (§1) Gelatinase (MMP-2) inhibitory activities can be determined as follows: Stock solutions of substrate (MCA-Lys-Pro-Leu-Gly-Leu-Dpa-Ala-Arg-NH2) are prepared in DMSO at a concentration of 1.4 mM. Stock solutions of inhibitors (0.03 μM-3 mM) are also prepared in DMSO. The inhibitors are diluted into the assay solutions, and the controls use an equal volume of DMSO so that the final DMSO concentration from the inhibitor and substrate dilutions in all assays is 1.0%. Assays are performed in an assay buffer (100 mM sodium chloride, 10 μM ZnCl. Sub 2, 10 mM CaCl2, 100 mM Tris-Cl pH7.5, 0.05% Brij-35), containing 1.0% DMSO from the substrate and inhibitor additions. The substrate concentration used in the assays is 5 μM. The assays are carried out at 20-25° C. The fluorescence changes, as a result of substrate cleavage, are monitored using an excitation wavelength of 325 nm and an emission wavelength of 405 nm. The reaction mixtures are added in duplicate into appropriate wells of a 384-well assay plate. The reaction mixtures are preincubated with the inhibitors for 60 minutes The reactions are started by the addition of MMP substrate, and the fluorescence intensity changes are measured after 60 minutes The apparent enzyme activity in the presence of an inhibitor is then compared with that in the absence of any inhibitor to determine the inhibition effect of the inhibitor. These techniques are within the knowledge of one skilled in the art. The inhibition results are expressed as the inhibitor concentrations required to effect 50% inhibition (IC50) of the enzyme activity, as compared with the control (non-inhibited) reactions.
Collagenase-3 (MMP-13) inhibitory activity is determined as described above. Recombinant pro-collagenase-3 is activated with 1 mM APMA, and stored in the assay buffer after extensive dialysis in the assay buffer.

For assay [2], the target named is T1, Gelatinase (MMP-2) (Homo sapiens, UniProt P08253).
T1 sequence (P08253 110-660): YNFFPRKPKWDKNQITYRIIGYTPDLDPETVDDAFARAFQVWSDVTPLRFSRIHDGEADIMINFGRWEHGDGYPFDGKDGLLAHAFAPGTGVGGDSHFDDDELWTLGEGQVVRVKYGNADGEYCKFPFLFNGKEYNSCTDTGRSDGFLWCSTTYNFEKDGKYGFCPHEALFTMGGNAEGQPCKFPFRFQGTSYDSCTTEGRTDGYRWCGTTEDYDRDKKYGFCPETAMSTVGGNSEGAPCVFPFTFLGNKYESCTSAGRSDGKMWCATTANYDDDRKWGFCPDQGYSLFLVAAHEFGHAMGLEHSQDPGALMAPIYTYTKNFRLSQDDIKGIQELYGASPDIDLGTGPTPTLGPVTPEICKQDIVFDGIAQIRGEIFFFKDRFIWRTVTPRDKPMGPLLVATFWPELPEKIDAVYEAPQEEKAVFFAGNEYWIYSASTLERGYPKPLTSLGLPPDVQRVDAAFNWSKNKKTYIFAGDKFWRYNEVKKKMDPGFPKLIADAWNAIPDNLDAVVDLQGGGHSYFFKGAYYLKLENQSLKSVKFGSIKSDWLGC
Put plainly: Gelatinase (MMP-2) inhibitory activity, fluorogenic peptide substrate cleavage. Type of assay: biochemical. Here is the method:
as §1

In the case of `NS(=O)(=O)c1cc(C(=O)c2ccc(F)cc2)ccc1Cl` [Example 51, 2-Chloro-5-(4-fluoro-benzoyl)-benzenesulfonamide], the values for the IC50 in assay [1] (read-out: MMP13 IC50) and in assay [2] (read-out: MMP02 IC50) were 18700 nM and 14600 nM, respectively.

As to `CC(C)(C)NC(=O)c1ccc(C(=O)c2ccc(Cl)c(S(N)(=O)=O)c2)cc1` [Example 52, N-tert-Butyl-4-(4-chloro-3-sulfamoyl-benzoyl)-benzamide], the values for the IC50 in assay [1] (read-out: MMP13 IC50) and in assay [2] (read-out: MMP02 IC50) were 21300 nM and 29100 nM, respectively.

With `NS(=O)(=O)c1cc(C(=O)c2ccc(C(=O)NCCc3ccccc3)cc2)ccc1Cl` [Example 54, 4-(4-Chloro-3-sulfamoyl-benzoyl)-N-phenethyl-benzamide], the IC50 in assay [1] (read-out: MMP13 IC50) is 27100 nM; in assay [2] (read-out: MMP02 IC50) it was 23400 nM.

Turning to `NS(=O)(=O)c1cc(C(=O)c2ccc(O)cc2)ccc1Cl` [Example 55, 2-Chloro-5-(4-hydroxy-benzoyl)-benzenesulfonamide], the figures for the IC50 in assay [1] (read-out: MMP13 IC50) and in assay [2] (read-out: MMP02 IC50) were 27500 nM and 25500 nM, respectively.

For `CC(C)COc1ccc(C(=O)c2ccc(Cl)c(S(N)(=O)=O)c2)cc1` [Example 58, 2-Chloro-5-(4-isobutoxy-benzoyl)-benzenesulfonamide], the figures for the IC50 in assay [1] (read-out: MMP13 IC50) and in assay [2] (read-out: MMP02 IC50) were 24200 nM and greater than 30000 nM, respectively.

Regarding `NS(=O)(=O)c1cc(C(=O)c2ccc(-c3ccccc3)cc2)ccc1Cl` [Example 59, 5-(Biphenyl-4-carbonyl)-2-chloro-benzenesulfonamide], the figures for the IC50 in assay [1] (read-out: MMP13 IC50) and in assay [2] (read-out: MMP02 IC50) were 2630 nM and 1160 nM, respectively.

Consider `Cc1ccc(-c2ccc(C(=O)c3ccc(Cl)c(S(N)(=O)=O)c3)cc2)cc1` [Example 61, 2-Chloro-5-(4′-methyl-biphenyl-4-carbonyl)-benzenesulfonamide], for which the IC50 was found to be 1020 nM in assay [1] (read-out: MMP13 IC50) and 1100 nM in assay [2] (read-out: MMP02 IC50).

Turning to `NS(=O)(=O)c1cc(C(=O)c2ccc(-c3ccc(C(F)(F)F)cc3)cc2)ccc1Cl` [Example 62, 2-Chloro-5-(4′-trifluoromethyl-biphenyl-4-carbonyl)-benzenesulfonamide], the IC50 in assay [1] (read-out: MMP13 IC50) worked out at 830 nM; in assay [2] (read-out: MMP02 IC50) it was 2210 nM.

Take `CCc1ccc(-c2ccc(C(=O)c3ccc(Cl)c(S(N)(=O)=O)c3)cc2)cc1` [Example 63, 2-Chloro-5-(4′-ethyl-biphenyl-4-carbonyl)-benzenesulfonamide]: the IC50 amounted to 380 nM in assay [1] (read-out: MMP13 IC50) and 2050 nM in assay [2] (read-out: MMP02 IC50).

Turning to `NS(=O)(=O)c1cc(C(=O)c2ccc(-c3ccccc3F)cc2)ccc1Cl` [Example 64, 2-Chloro-5-(2′-fluoro-biphenyl-4-carbonyl)-benzenesulfonamide], the IC50 came out at 7550 nM in assay [1] (read-out: MMP13 IC50) and 4050 nM in assay [2] (read-out: MMP02 IC50).

Consider `NS(=O)(=O)c1cc(C(=O)c2ccc(-c3ccc(F)cc3)cc2)ccc1Cl` [Example 65, 2-Chloro-5-(4′-fluoro-biphenyl-4-carbonyl)-benzenesulfonamide], for which the IC50 in assay [1] (read-out: MMP13 IC50) amounted to 1610 nM; in assay [2] (read-out: MMP02 IC50) it was 1180 nM.

Consider `NS(=O)(=O)c1cc(C(=O)c2ccc(-c3ccc(Cl)cc3)cc2)ccc1Cl` [Example 66, 2-Chloro-5-(4′-chloro-biphenyl-4-carbonyl)-benzenesulfonamide], for which the IC50 is 630 nM in assay [1] (read-out: MMP13 IC50) and 720 nM in assay [2] (read-out: MMP02 IC50).

Turning to `NS(=O)(=O)c1cc(C(=O)c2ccc(-c3cccc(Br)c3)cc2)ccc1Cl` [Example 67, 5-(3′-Bromo-biphenyl-4-carbonyl)-2-chloro-benzenesulfonamide], the IC50 in assay [1] (read-out: MMP13 IC50) turned out to be 5290 nM; in assay [2] (read-out: MMP02 IC50), 10200 nM.

`NS(=O)(=O)c1cc(C(=O)c2ccc(-c3cccc([N+](=O)[O-])c3)cc2)ccc1Cl` [Example 68, 2-Chloro-5-(3′-nitro-biphenyl-4-carbonyl)-benzenesulfonamide]: the IC50 is 3150 nM in assay [1] (read-out: MMP13 IC50) and 3440 nM in assay [2] (read-out: MMP02 IC50).

Turning to `CC(=O)Nc1cccc(-c2ccc(C(=O)c3ccc(Cl)c(S(N)(=O)=O)c3)cc2)c1` [Example 70, N-[4′-(4-Chloro-3-sulfamoyl-benzoyl)-biphenyl-3-yl]-acetamide], the IC50 in assay [1] (read-out: MMP13 IC50) was found to be 4010 nM; in assay [2] (read-out: MMP02 IC50), 11400 nM.

As for `O=C(c1ccc(-c2cccc(CO)c2)cc1)c1ccc(Cl)c(S(=O)(=O)O)c1` [Example 71, 2-Chloro-5-(3′-hydroxymethyl-biphenyl-4-carbonyl)-benzenesulfonic acid], the IC50 in assay [1] (read-out: MMP13 IC50) amounted to 1400 nM; in assay [2] (read-out: MMP02 IC50) it was 1090 nM.

As for `NS(=O)(=O)c1cc(C(=O)c2ccc(-c3ccc(C=O)cc3)cc2)ccc1Cl` [Example 72, 2-Chloro-5-(4′-formyl-biphenyl-4-carbonyl)-benzenesulfonamide], the results for the IC50 in assay [1] (read-out: MMP13 IC50) and in assay [2] (read-out: MMP02 IC50) were 130 nM and 180 nM, respectively.

As to `NS(=O)(=O)c1cc(C(=O)c2ccc(-c3ccc(C(=O)O)cc3)cc2)ccc1Cl` [Example 73, 4′-(4-Chloro-3-sulfamoyl-benzoyl)-biphenyl-4-carboxylic acid], the IC50 in assay [1] (read-out: MMP13 IC50) turned out to be 610 nM; in assay [2] (read-out: MMP02 IC50), 980 nM.

As for `COC(=O)c1ccc(-c2ccc(C(=O)c3ccc(Cl)c(S(N)(=O)=O)c3)cc2)cc1` [Example 74, 4′-(4-Chloro-3-sulfamoyl-benzoyl)-biphenyl-4-carboxylic acid methyl ester], the IC50 was 240 nM in assay [1] (read-out: MMP13 IC50) and 930 nM in assay [2] (read-out: MMP02 IC50).

On to `NS(=O)(=O)c1cc(C(=O)c2ccc(-c3ccccc3)cc2)ccc1Cl` [Example 76, 5-(Biphenyl-4-carbonyl)-2-chloro-benzenesulfonamide], for which the figures for the IC50 in assay [1] (read-out: MMP13 IC50) and in assay [2] (read-out: MMP02 IC50) were 12000 nM and 21700 nM, respectively.

With `Cc1cccc(-c2ccc(C(=O)c3ccc(Cl)c(S(N)(=O)=O)c3)cc2)c1` [Example 77, 2-Chloro-5-(3′-methyl-biphenyl-4-carbonyl)-benzenesulfonamide], the IC50 is 23100 nM in assay [1] (read-out: MMP13 IC50) and 29100 nM in assay [2] (read-out: MMP02 IC50).

Turning to `CN(C)c1ccc(C(=O)c2ccc(Cl)c(S(N)(=O)=O)c2)cc1` [Example 78, 2-Chloro-5-(4-dimethylamino-benzoyl)-benzenesulfonamide], the IC50 was 350 nM in assay [1] (read-out: MMP13 IC50) and 270 nM in assay [2] (read-out: MMP02 IC50).

`CCN(CC)c1ccc(C(=O)c2ccc(Cl)c(S(N)(=O)=O)c2)cc1` [Example 79, 2-Chloro-5-(4-diethylamino-benzoyl)-benzenesulfonamide]: the figures for the IC50 in assay [1] (read-out: MMP13 IC50) and in assay [2] (read-out: MMP02 IC50) were 10400 nM and 5720 nM, respectively.

Consider `NS(=O)(=O)c1cc(C(=O)c2ccc(N3CCCC3)cc2)ccc1Cl` [Example 80, 2-Chloro-5-(4-pyrrolidin-1-yl-benzoyl)benzenesulfonamide], for which the IC50 is roughly 113 nM in assay [1] (read-out: IC50 (collagenase-3 MMP-13)), 113 nM in assay [1] (read-out: MMP13 IC50) and 55 nM in assay [2] (read-out: IC50 (gelatinase MMP-2)).

As for `NS(=O)(=O)c1cc(C(=O)c2ccc(N3CC=CC3)cc2)ccc1Cl` [Example 81, 2-Chloro-5-[4-(2,5-dihydro-pyrrol-1-yl)-benzoyl]-benzenesulfonamide], the IC50 was determined as 1010 nM in assay [1] (read-out: MMP13 IC50) and 1310 nM in assay [2] (read-out: MMP02 IC50).

As to `NS(=O)(=O)c1cc(C(=O)c2ccc(-n3cccc3)cc2)ccc1Cl` [Example 82, 2-Chloro-5-(4-pyrrol-1-yl-benzoyl)-benzenesulfonamide], the IC50 in assay [1] (read-out: MMP13 IC50) was 860 nM; in assay [2] (read-out: MMP02 IC50), 1150 nM.

As to `NS(=O)(=O)c1cc(C(=O)c2ccc(N3CCCCC3)cc2)ccc1Cl` [Example 83, 2-Chloro-5-(4-piperidin-1-yl-benzoyl)-benzenesulfonamide], the IC50 was 1770 nM in assay [1] (read-out: MMP13 IC50) and 870 nM in assay [2] (read-out: MMP02 IC50).

Regarding `CC1CCCN(c2ccc(C(=O)c3ccc(Cl)c(S(N)(=O)=O)c3)cc2)C1` (stereo not shown) [Example 84, 2-Chloro-5-[4-(3-methyl-piperidin-1-yl)-benzoyl]-benzenesulfonamide], the IC50 in assay [1] (read-out: MMP13 IC50) was 7540 nM; in assay [2] (read-out: MMP02 IC50) it was 1350 nM.

Turning to `NS(=O)(=O)c1cc(C(=O)c2ccc(N3CCC(c4ccccc4)CC3)cc2)ccc1Cl` [Example 85, 2-Chloro-5-[4-(4-phenyl-piperidin-1-yl)-benzoyl]benzenesulfonamide], the IC50 in assay [1] (read-out: MMP13 IC50) is 570 nM; in assay [2] (read-out: MMP02 IC50), 2050 nM.

For the compound `NS(=O)(=O)c1cc(C(=O)c2ccc(N3CCC(Cc4ccccc4)CC3)cc2)ccc1Cl` [Example 86, 5-[4-(4-Benzyl-piperidin-1-yl)-benzoyl]-2-chloro-benzenesulfonamide], the figures for the IC50 in assay [1] (read-out: MMP13 IC50) and in assay [2] (read-out: MMP02 IC50) were 7670 nM and greater than 30000 nM, respectively.
